Tests used:
GGH = biological target: T1, GGH (Homo sapiens, UniProt Q92820, T151I); conditions: MTXPG2 as the substrate; reported by Chave et al. 2003; cited from earlier work
T1 sequence (Q92820 25-318 T151I): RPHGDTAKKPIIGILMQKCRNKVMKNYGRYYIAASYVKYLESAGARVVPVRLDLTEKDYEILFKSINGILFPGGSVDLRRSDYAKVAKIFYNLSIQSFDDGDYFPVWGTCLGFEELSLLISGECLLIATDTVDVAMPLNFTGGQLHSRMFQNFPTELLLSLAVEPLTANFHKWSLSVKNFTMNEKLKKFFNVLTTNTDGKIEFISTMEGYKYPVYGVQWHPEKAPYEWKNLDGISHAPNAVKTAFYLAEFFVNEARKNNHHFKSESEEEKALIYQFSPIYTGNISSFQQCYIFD

T127I variant GGH = biological target: T2, T127I variant GGH (Homo sapiens, UniProt Q92820, T151I); experiment: Enzyme kinetic analysis of heterologously expressed wild-type and T127I variant GGH with MTX-PG as substrate; format: biochemical; conditions: recombinant GGH, substrate as labelled; for catalytic efficiency (Vmax/Km) reduction of T127I variant: versus wild-type, p=0.003
T2 construct: A cDNA encoding the 294 amino acids of human GGH (with out leading peptide) was cloned by RT-PCR; made in house; host or cells: E. coli BL21(DE3)pLysS
T2 sequence (Q92820 25-318 T151I): T1 sequence (Q92820 25-318 T151I)
Experimental: Wild-type human GGH cloning and site-directed mutagenesis: A cDNA encoding the 294 amino acids of human GGH (with out leading peptide) was cloned by RT-PCR and TA cloning (Invitrogen, Carlsbad, Calif.) using RNA isolated from human CEM cells. Plasmid DNA was purified using the mini prep kit (Qiagen, Santa Clarita, Calif.). After sequencing, the selected cDNA clone was subcloned into the pET28b vector (Novagen, Madison, Wis.) from Nde1 and BamH1 sites, and an N-terminal HisTag was added. This HisTag enabled the purification of large quantities of protein and had no effect on GGH activity (Chave, K. J. et al., 2000, id). Site-directed mutagenesis was performed with the QuickChange II kit (Stratagene, La Jolla, Calif.) according to the manufacturer's protocol. The primers used for mutagenesis of wild-type human GGH to T127I were
Expression and characterization of T127I variant GGH: Plasmids carrying wild-type and T127I variant GGH were used to transform E. coli strain BL21(DE3)pLysS competent cells (Novagen, Madison, Wis.). The E. coli cells were grown in LB medium containing 30 μg/ml kanamycin and 34 μg/ml chloramphenicol at 37° C. to OD600 about 0.6 and expression was induced with 1 mM isopropyl-β-D-thiogalactoside for 3 h. Cells were harvested by centrifugation at 5,000 g for 5 min at 4° C., and were kept as a frozen pellet at −70° C. Target proteins were extracted using BugBuster His-Bind Purification kit (Novagen, Madison, Wis.), followed by gel filtration chromatography at 4° C. on a HiLoad 26/60 S200 Superdex column (Amersham Pharmacia Biotech, Sweden) in 0.05 M sodium acetate buffer, pH5.5, containing 0.05 M 2-mercaptoethanol, 1 M NaCl, and 1 mM EDTA. Fractions containing target proteins were pooled and proteins were concentrated using Viva Cell 70 ml Concentrator, followed by Viva Cpin 2 ml Concentrator (Vivascience, Edgewood, NY).
Wild-type and T127I variant forms of human GGH were separated using NuPAGE™ 4-12% Bis-Tris Gel (Invitrogen, Carlsbad, Calif.). Protein bands were visualized by silver staining (Amersham Pharmacia Biotech, Sweden). Western blot was carried out as described (Tai, H. L. et al., “Thiopurine S-methyltransferase deficiency: two nucleotide transitions define the most prevalent mutant allele associated with loss of catalytic activity in Caucasians” Am J Hum Genet 58:694-702 (1996)). Polyclonal anti-human GGH rabbit antibody was kindly provided by Drs Thomas J. Ryan and […]. GGH activity was measured using MTEN buffer with 25 mM DTT. The assay mixture without substrate was incubated at 37° C. for 20 min, followed by incubation with substrate at 37° C. for 5 min and boiling for 5 min. In each experiment, wild-type and variant GGH were analyzed in parallel using varying concentrations of MTX-PG5 or MTX-PG2 as substrate. The substrate and the reaction products were analyzed by HPLC, and GGH activity was calculated by total amount of product formed per min per μg protein. Two independent experiments were carried on with each substrate. Nonlinear least-squares regression was used to estimate Km and Vmax by fitting a Michaels-Menten model as described earlier (Panetta, J. C. et al., id).

Compound	effect of T127I mutation on GGH activity (GGH)	difference in Km between the wild-type and T127I variant (T127I variant GGH)	difference in Vmax between the wild-type and T127I variant (T127I variant GGH)	difference in catalytic efficiency between the wild-type and T127I variant (T127I variant GGH)	Km increase of T127I variant compared to wild-type GGH (T127I variant GGH; p=0.021)	catalytic efficiency (Vmax/Km) reduction of T127I variant (T127I variant GGH)	catalytic efficiency (Vmax/Km) reduction of T127I variant (T127I variant GGH; listed as MTXPG5)
CN(Cc1cnc2nc(N)nc(N)c2n1)c1ccc(C(=O)N[C@@H](CCC(=O)N[C@@H](CCC(=O)O)C(=O)O)C(=O)O)cc1 [MTX-PG2]	did not change GGH activity	not a significant difference	not a significant difference	not a significant difference	–	–	–
CN(Cc1cnc2nc(N)nc(N)c2n1)c1ccc(C(=O)N[C@@H](CCC(=O)N[C@@H](CCC(=O)N[C@@H](CCC(=O)N[C@@H](CCC(=O)N[C@@H](CCC(=O)O)C(=O)O)C(=O)O)C(=O)O)C(=O)O)C(=O)O)cc1 [MTX-PG5]	–	–	not a significant difference	–	2.7 fold	67%	67.5%

From patent US7741032B2, “Genotyping assay to predict gamma glutamyl hydrolase (GGH) activity” (St. Jude Children's Research Hospital, Inc., priority 2004, dated 2010)
